US20090170759A1, “NEUROPROTECTIVE PEPTIDES” (priority 2007, published 2009)
“Also recorded” adds a separate entry of the source.

Tests used:
bak = assay: EPO induced gene expression in PC12 cells, quantitative RT-PCR (bak); type: cell-based, rat; conditions: PC-12 cells
Experimental: (§1) PC-12 cells (from a rat Pheochromocytoma) were cultured on poly-D-Lysine coated tissue culture plastic in DMEM containing 10% FBS and 5% Horse serum. To induce the neuronal phenotype in PC-12 cells, serum was removed and the cells were treated with NGF (50 ng/ml). Cells were grown for 7 days in the presence of the NGF then used for experiments.
PC-12 cells were cultured as described in Example 1 in a 10 cm poly-D-lysine coated tissue culture dish. […] Total RNA was then isolated using a Qiagen RNAeasy mini prep kit and used for RT-PCR.
Real time reverse transcription and PCR were performed in a single reaction using a light cycler and an RNA amplification kit from Roche Molecular Biochemicals. RNA was quantitated and added in equal amounts to reaction mix that includes the dsDNA specific dye SYBR green I. Specific PCR reaction products are quantitated by detecting the amount of fluorescence in the reaction at each PCR cycle. Final analysis was performed using the data analysis software included with the light cycler instrument.

PC-12 cells [1] = assay: NGF withdrawal in PC-12 cells; type: cell-based, rat
Experimental: as §1, with “[…] cells (from” for “PC-12 cells (from”
PC-12 cells were cultured as described above in a 96 well poly-d-lysine coated multi-well plate and treated with rhEPO (1 pm to 10 nm) for 24 hr prior to NGF withdrawal. On the day of the experiment the cells were washed with buffer 3 times to remove NGF and then cultured in fresh media without NGF. Immediately following NGF washout cells were counted (t=0) to determine the number of living cells. Cell viability was based on morphological characteristics including phase brightness, presence of axons, and absence of blebbing. Cell counts were performed at 12 hr, 24 hr, 48 hr and 72 hr and the number of viable cells were scored.

rat hippocampal cultures = assay: Neurite outgrowth assay (MAP2-FITC immunofluorescence), hippocampal cultures; type: cell-based
Description: Dissociated hippocampal and cortical cell cultures were established from embryonic day 18 rat fetuses as previously described (Mattson et al., 1994). Briefly, fetuses were removed via cesarean section from pregnant moms (Sprague-Dawley) anesthetized with halothane according to the AVMA Panel on Euthanasia. Pups were decapitated and the brains were removed and placed in HEPES-buffered Hank's Balanced Salt solution (HBSS; Gibco). The hippocampi and cortices were dissected out and pooled according to tissue-type. Tissue was trypsinized for 15 min (1 mg/ml trypsin-HBSS; Worthington), rinsed with fresh HBSS, incubated in trypsin inhibitor (1 mg/ml; Sigma) for 5 min, rinsed again with fresh HBSS and then triturated in 1 ml fresh HBSS with a fire-polished glass pipette. Dissociated cells were seeded at 30,000 cells/well onto poly-D-lysine coated 96-well plates (Collaborative BioScience). Each well contained 100 μl of Eagle's Minimal Essential Media (MEM; Gibco) supplemented with 26 mM NaHCO3 (Sigma), 56 mM glucose (Sigma), 15 mM KCl (Sigma), 1 mM sodium pyruvate (Sigma), 1.1 mM L-glutamine (Sigma), 10% (v/v) heat-inactivated fetal bovine serum (Hyclone), and 0.001% gentamicin sulfate (Sigma) (pH 7.4). Cells were allowed to attach for 24 h in a humidified 37° C. 5% CO2 incubator before experimental treatment. The culture media was aspirated and exchanged with fresh media every three days.
Twenty-four hours after plating, cultures were treated with vehicle (PBS+0.1% BSA), 100 ng of various growth factors (brain derived neurotrophic factor (BDNF; Promega), glial-derived neurotrophic factor (GDNF; Promega), nerve growth factor (NGF; Boehringer Mannheim), basic fibroblast growth factor (bFGF; Boehringer Mannheim), insulin-like growth factor-1 (IGF-1; Boehringer Mannheim), neurotrophin-3 (NT3; Calbiochem), neurotrophin-4 (NT4; Calbiochem), ciliary neurotrophic factor (CNTF; Calbiochem), epidermal growth factor (EGF; Calbiochem), vascular endothelial growth factor (VEGF; Calbiochem)), or rhEPO (prepared same as above; 10 fM-10 nM)). Each treatment condition was run in quadruplicate or octuplicate. On the third day in culture, the media was aspirated off and replaced with fresh media and test compound. At one week in culture, the cells were fixed with 10% phosphate-buffered formalin for 15 min, then rinsed with DPBS (Sigma) and placed in blocking serum for 30 min (horse serum; 1:50 dilution in DPBS; Vector Labs). Cultures were rinsed again with DPBS and then incubated in primary antibody for 2 hr (microtubule-associated protein-2 (MAP-2) is a selective marker for dendritic processes; anti-mouse monoclonal (Chemicon); 1:1000 dilution of MAP-2 in antibody diluent (Zymed)). Negative control wells were incubated in antibody diluent alone. Background signal was determined by blank wells (cell-free) incubated with or without antibody. Cultures were rinsed again with DPBS and then placed in fluorescein for 1 hr (FITC; anti-mouse IgG; rat adsorbed; 1:50 dilution in DPBS; Vector Labs). Cultures were rinsed a final time with DPBS and then the plates were read on a Cytofluor 4000 fluorescence plate reader. Neurite outgrowth was expressed as percent change from control (vehicle; mean fluorescence±SD).
Dissociated hippocampal and cortical cell cultures were established from embryonic day 18 rat fetuses as previously described (Mattson et al., 1994). Briefly, fetuses were removed via cesarean section from pregnant moms (Sprague-Dawley) anesthetized with halothane according to the AVMA Panel on Euthanasia. Pups were decapitated and the brains were removed and placed in HEPES-buffered Hank's Balanced Salt solution (HBSS; Gibco). The hippocampi and cortices were dissected out and pooled according to tissue-type. […]

PC-12 cells [2] = assay: Glutamate toxicity in PC-12 cells (trypan blue exclusion); type: cell-based, rat
Experimental: as §1, with “[…] cells (from” for “PC-12 cells (from”
PC-12 cells were cultured as described above. 24 hr prior to insult, cells were treated with rhEPO at concentrations ranging from 1 pm to 1 nm. On the day of the experiment, cells were exposed to 200 μM glutamate for 30 min. Cells were then washed 2 times with fresh media to remove the glutamate and cultured in fresh media containing NGF but no EPO. After 24 hr cells were assayed for viability using a trypan blue exclusion assay. Briefly, media was removed and the cells were incubated in 0.4% Trypan Blue for 5 min. Cells were then washed gently with PBS, then fixed with 10% formalin. Cell viability was determined by counting the total number of cells vs. the number of trypan blue positive (dead) cells.

## rhEPO: purified, recombinant human EPO (rhEPO), currently formulated and distributed under the trademarks of EPREX, ERYPO, or PROCRIT
bak; 1 nm EPO for 24 hr (FIG. 3 legend)
  decrease in the expression of the pro-apoptotic Bak: greater than 5 fold
bak; EPO 1 U/ml for 24 hr
  decrease in the expression of the pro-apoptotic gene bak: 5 fold
PC-12 cells [1]; 1 nm
  neuroprotective effect at 1 nm, growth factor withdrawal: no significant effect
PC-12 cells [1]; 24 hr pre-treatment before NGF withdrawal
  peak / optimum concentration for the neuroprotective effect, NGF withdrawal: 10 pm
PC-12 cells [1]; 24 hr pre-treatment, 12 hr, 24 hr, 48 hr and 72 hr after withdrawal, listed as EPO
  viable cells / cell death after NGF withdrawal (in words): significant decrease in cell death; also recorded: increased the number of viable cells at each time point
Rat hippocampal cultures; Example 3, one week in culture
  neurite outgrowth response over control, hippocampal cultures: 12-44%
Rat hippocampal cultures; figure legends
  neurite outgrowth in rat hippocampal cultures (in words): promotes neurite outgrowth
Rat hippocampal cultures; growth factors at 100 ng
  neurite outgrowth promoting activity in hippocampus compared with growth factors: superior to several growth factors including BDNF, NGF and VEGF
PC-12 cells [2]; 1 nm
  neuroprotective effect at 1 nm, glutamate toxicity: no significant effect
PC-12 cells [2]; 1 to 10 pm given 24 hours prior to glutamate (200 um), p<0.001
  cell survival after glutamate (in words): significantly increased cell survival
PC-12 cells [2]; 24 hr pre-treatment
  cell death induced by glutamate toxicity (in words): significant decrease in cell death
PC-12 cells [2]; 24 hr pre-treatment, 200 μM glutamate
  peak concentration for the neuroprotective effect, glutamate toxicity: 10 pm
